This note sets out measurements from patent US12612420B2, “Arginase inhibitors and methods of use thereof” (Molecure S.A., priority 2020, dated 2026).

Experiment [1] has as its target T1, recombinant human arginase 1 (hARG1) (Homo sapiens, UniProt P05089).
T1 construct: made in house; host or cells: E. coli
T1 sequence (P05089 1-322): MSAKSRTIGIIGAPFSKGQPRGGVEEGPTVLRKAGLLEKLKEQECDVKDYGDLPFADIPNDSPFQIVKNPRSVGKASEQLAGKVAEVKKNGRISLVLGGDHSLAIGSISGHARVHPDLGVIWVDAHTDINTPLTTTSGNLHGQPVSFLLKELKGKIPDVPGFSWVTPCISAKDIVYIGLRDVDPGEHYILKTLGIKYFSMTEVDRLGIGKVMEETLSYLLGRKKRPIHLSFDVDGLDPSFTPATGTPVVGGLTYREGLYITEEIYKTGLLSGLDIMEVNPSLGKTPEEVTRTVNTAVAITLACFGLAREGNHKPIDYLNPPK
Nature of the experiment: Human arginase inhibition assay (colorimetric urea detection), arginase 1. As to conditions: IC50 class; hydrochloride salts; 1 h at 37° C., pH 7.4, 10 mM L-arginine, 200 μM MnCl2; read-out: Activity Class (ARG I). Format: biochemical. How it is done: (§1) Human Arginase Inhibition Assay
(§2) The inhibitory activities of the compounds of the invention were assessed using recombinant human arginases 1 and 2. Both enzymes were biosynthesized using a prokaryotic expression system (E. coli) and purified by fast protein liquid chromatography (FPLC). The compounds were screened in 96-well plates at the total reaction volume of 100 μL. Briefly, recombinant enzymes were incubated with the tested compounds for 1 h at 37° C. in the reaction buffer (100 mM sodium phosphate buffer, 130 mM NaCl, 1 mg/mL BSA, pH 7.4) containing substrate (L-arginine hydrochloride, 10 mM for hARG1 and 20 mM for hARG2) and cofactor (200 μM MnCl2). The assay is based on the detection of urea, which is generated during the conversion of L-arginine into L-omithine catalyzed by ARG1 or ARG2 (Baggio et al. J Pharmacol. Exp. Ther. 1999, 290, 1409-1416). The colorimetrically detectable product was developed by adding a mixture of reagent A (4 mM oPA, 50 mM boric acid, 1 M sulfuric acid, 0.03% Brij-35) and reagent B (4 mM NED, 50 mM boric acid, 1 M sulfuric acid, 0.03% Brij-35) in equal proportions. The absorbance for each well was measured at 515 nm and the enzyme inhibition was calculated. The urea production in the absence of any tested compound was considered as maximal enzyme activity. The absorbance at the absence of arginase (background) was subtracted from all the values. The normalized values were analyzed using GraphPad Prism 7.0 software by plotting inhibition curves and determining the IC50 values.
(§3) The inhibitory activity classes of the hydrochloride salts of the exemplary compounds according to the invention are presented in Table 1

Experiment [2] concerns the target T2, recombinant human arginase 2 (hARG2) (Homo sapiens, UniProt P78540).
T2 construct: made in house; host or cells: E. coli
T2 sequence (P78540 23-354): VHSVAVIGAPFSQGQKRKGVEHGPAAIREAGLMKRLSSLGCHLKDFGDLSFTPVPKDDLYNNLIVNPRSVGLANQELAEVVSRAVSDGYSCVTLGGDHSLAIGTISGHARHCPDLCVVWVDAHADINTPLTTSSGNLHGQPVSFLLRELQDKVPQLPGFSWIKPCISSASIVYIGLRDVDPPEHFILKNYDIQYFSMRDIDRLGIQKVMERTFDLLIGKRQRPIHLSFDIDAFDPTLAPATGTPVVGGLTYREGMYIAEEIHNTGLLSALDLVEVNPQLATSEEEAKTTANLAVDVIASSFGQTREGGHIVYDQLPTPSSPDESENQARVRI
The experiment in a line: Human arginase inhibition assay (colorimetric urea detection), arginase 2. Particulars: IC50 class; hydrochloride salts; 1 h at 37° C., pH 7.4, 20 mM L-arginine, 200 μM MnCl2; read-out: Activity Class (ARG II). Format: biochemical. How it is done: as §1, §2, §3

For experiment [3], the target named is T3, intracellular arginase in macrophages isolated from murine bone marrow (BMDM) (Mus musculus, UniProt Q61176).
T3 construct: endogenous in cells; host or cells: primary bone-marrow-derived macrophages from C57BL/6 mice, cultured with M-CSF, TGF-β and IL-4
T3 sequence (Q61176 1-323): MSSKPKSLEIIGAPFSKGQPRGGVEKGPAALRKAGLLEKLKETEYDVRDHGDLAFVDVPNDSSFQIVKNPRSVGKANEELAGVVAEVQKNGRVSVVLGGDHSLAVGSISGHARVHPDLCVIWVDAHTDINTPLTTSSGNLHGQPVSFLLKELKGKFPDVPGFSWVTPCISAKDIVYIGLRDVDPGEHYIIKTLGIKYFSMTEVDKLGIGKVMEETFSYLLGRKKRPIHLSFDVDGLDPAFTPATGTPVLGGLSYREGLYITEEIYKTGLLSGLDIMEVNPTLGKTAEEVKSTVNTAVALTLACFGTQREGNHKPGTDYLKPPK
The experiment in a line: Cell-based assay: intracellular arginase in bone marrow derived macrophages (BMDM), urea in culture medium. As to conditions: IC50 class; M2-polarised murine BMDM (M-CSF, TGF-β, IL-4), urea in medium after 24 hours. Also on record: species or system murine (C57BL/6 mice). How it is done:
To illustrate the lower cellular activity of the compounds according to the invention versus arginase inhibitors disclosed in U.S. Ser. No. 10/391,077 B2, the selected examples were tested in cell-based assay using murine primary macrophages. Lower intracellular activity observed for the compounds according to the invention may potentially result in lower hepatotoxicity compared to the arginase inhibitors disclosed in U.S. Ser. No. 10/391,077 B2.
Efficacy of Selected Examples Towards Intracellular Arginase in Macrophages Isolated from Murine Bone Marrow—Bone Marrow Derived Macrophages (BMDM)
Murine bone marrow-derived or peritoneal macrophages comprise a convenient in vitro model that enables differentiation of these cells towards M1 or M2 macrophages and further use for the study.
Materials & Methods: The assay was performed according to modified literature protocol (Pineda-Torra I et al., Methods Mol Biol. 2015; 1339:101-9. Mia S et al., Scand J Immunol. 2014 May; 79(5):305-14). The femurs and tibias were isolated from C57BL/6 mice. Bones were cleaned from all attached tissues by using a sterile swab without affecting the bone structure. The sides of the bones were cut off and flush with cold sterile PBS by using 26-G needle S into a 50 mL sterile tube with a cell strainer (Falcon™, Cat. No. U00149), until the bone cavity appeared white. Then, the cells were centrifuged (5 min at 500×G, 4° C.), washed twice with PBS and counted. Cells were plated in Petri dish in density of 1×10^6/mL and cultured in DMEM (Gibco, Cat. No. 31331-029) with 10% FBS, 1% pen-strep and 50 ng/mL M-CSF (PeproTech, Cat. No. 315-02), (37° C., 5% CO2). After five days cells were subcultured into P96 plate (BD, Cat. No. 353072) at the density of 64,000 cells/well in medium supplemented with 50 ng/mL M-CSF, 20 ng/mL TGF-β and 30 ng/mL IL-4 (Biomibo Cat. No. 214-1). One day later exemplary compounds (dissolved in PBS) were added in several different concentrations and 24 hours later the level of urea was measured in the culture medium in each well (Jung D et al., Clin Chem. 1975, 21(8):1136-40). The concentration of urea in the absence of any compound was considered as the maximum enzyme activity. The absorbance of cell culture media (background) was subtracted from all the values.
The IC50 values were calculated using GraphPad Prism 7.0. and assigned into the following classes: A=10-100 μM; and B>100 μM.

The structures appear in SMILES notation. Structures can show the parent of a compound that is named as a salt. Some results are limits rather than exact numbers.

On to `CC(C)C[C@H](N)C(=O)NC[C@@H]1CC[C@@H](CCB(O)O)C[C@]1(N)C(=O)O` [Example 6, (1R,2S,5R)-1-Amino-2-(((S)-2-amino-4-methylpentanamido)methyl)-5-(2-boronoethyl)cyclohexane-1-carboxylic acid dihydrochloride], for which the IC50 lay within 1 to 99 nM in experiment [1], 100 to 199 nM in experiment [2] and 10000 to 100000 nM in experiment [3].
In the same order, the values of `N[C@@H](Cc1ccccc1)C(=O)NC[C@@H]1CC[C@@H](CCB(O)O)C[C@]1(N)C(=O)O` [Example 3, (1R,2S,5R)-1-Amino-2-(((S)-2-amino-3-phenylpropanamido)methyl)-5-(2-boronoethyl)cyclohexane-1-carboxylic acid dihydrochloride] are above 300 nM, above 300 nM and above 100000 nM.
Take `NCCCC[C@H](N)C(=O)NC[C@@H]1CC[C@@H](CCB(O)O)C[C@]1(N)C(=O)O` [Example 9, (1R,2S,5R)-1-Amino-5-(2-boronoethyl)-2-(((S)-2,6-diaminohexanamido)methyl)cyclohexane-1-carboxylic acid trihydrochloride]: the IC50 in experiment [1] was 1 to 99 nM; in experiment [2] it was above 300 nM; in experiment [3], above 100000 nM.
